According to US7615536B2, “1,4-benzothiazepine 1,1-dioxide derivative, process for its preparation, medicaments comprising this compound, and use thereof as a hypolipidaemic” (Sanofi-Aventis Deutschland GmbH, priority 2005, dated 2009):

Biological target: T1, recombinantly expressed human sodium-dependent ileal bile acid transporter (IBAT, ASBT, SLC10A2) (Homo sapiens, UniProt Q12908)
T1 construct: Bases 599 to 1645 correspond to the complete coding region of the human IBAT; expressed in transfected cells
T1 sequence (Q12908 1-348): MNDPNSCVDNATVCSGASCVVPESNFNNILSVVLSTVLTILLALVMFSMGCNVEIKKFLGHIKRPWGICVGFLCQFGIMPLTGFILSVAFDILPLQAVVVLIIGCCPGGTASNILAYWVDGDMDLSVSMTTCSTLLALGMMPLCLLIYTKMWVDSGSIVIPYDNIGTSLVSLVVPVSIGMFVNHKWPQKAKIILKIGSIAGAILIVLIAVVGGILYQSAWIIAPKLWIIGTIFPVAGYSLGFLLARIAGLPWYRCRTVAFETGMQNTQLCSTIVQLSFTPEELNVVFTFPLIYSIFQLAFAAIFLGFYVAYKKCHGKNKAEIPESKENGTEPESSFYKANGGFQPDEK
Experiment: in vitro IBAT inhibition test ([3H]-taurocholic acid uptake into CHO-hIBAT cells)
Format: cell-based
Experimental: Biological testing of the compound A according to the invention was carried out using the in vitro IBAT inhibition test. This test examines the effect of the compound according to the invention on the transport activity of the recombinantly expressed human sodium-dependent ileal bile acid transporter (IBAT=ileal Na^+/bile acid contransporter, ASBT=apical sodium-dependent bile acid transporter, SLC10A2=solute carrier family 10, member 2).
Preparation for and practice of the in vitro IBAT inhibition test:
1. Cloning of an Expression Vector for Human IBAT […]
CHO-hIBAT cells were sown at a concentration of 40 000 cells per well in cell culture medium in poly-D-lysine-coated 96-well plates and cultivated for 24h. […] Finally, 100 μL of scintillation fluid were added to each well, and the radioactivity taken up into the cells was determined in a MicroBeta scintillation microplate reader from Wallac.
The half-maximal inhibitory effect of the test compound (IC50 value, inhibitory concentration 50) was determined as follows:
• 1. […] This is the value measured in the absence of substance, measured in sodium-comprising transport assay buffer. • 2. […] This is the value measured in the absence of substance, measured in sodium-free transport assay buffer. • 3. […]

IC50 (CHO-hIBAT cells, taurocholic acid 10 μM, 60 min at room temperature): 57 nM
activity higher compared to comparative example from EP 1 169 313 (relative to compound 11a, from the IC50 (human IBAT) values): 560%
Compound: CCCCC1(CCCC)CS(=O)(=O)c2ccc(N(C)C)cc2[C@@H](c2cccc(NC(=O)N[C@@H]3O[C@H](CO)[C@@H](O)[C@H](O)[C@H]3O)c2)N1 [Example A]
